Reference: patent US10695347B2, “Pyrimidine derivative and use thereof” (Hubei Bio-Pharmaceutical Industrial Technological Institute …, priority 2015, dated 2020)
Read-outs that look alike come from different tables or passages of the source.

Experiments:
[1] = target: ALK (Homo sapiens (Human), UniProt Q9UM73); test: Inhibition of ALK kinase activity (Caliper mobility shift); format: biochemical
Procedure: (§1) Inhibition of Compound I Against ALK Kinase Activity
(§2) • I. Preparation of 1× kinase buffer and stop buffer
(§3) 1) 1× Kinase Buffer • 50 mM HEPES. pH 7.5 • 0.0015% Brij-35 • 10 mM MgCl2 • 2 mM DTT • 2) stop buffer • 100 mM HEPES, pH 7.5 • 0.015% Brij-35 • 0.2% Coating Reagent #3 • 50 mM EDTA
(§4) 2. Prepare a Compound Solution to be Tested • Step 2.1 Dilute the compound to 50× of the final desired highest inhibitor concentration in reaction by 100% DMSO. Transfer 100 μl of this compound dilution to a well in a 96-well plate. For example, if desired highest inhibitor concentration is 1 μM, then prepare 50 μM of compound DMSO solution in this step.
(§5) Step 2.2 Further dilute said compound dilution by 3-fold in series, thus obtain 10 concentrations.
(§6) Step 2.3 Add 100 μl of 100% DMSO to two empty wells for no compound control and no enzyme control in the same 96-well plate. Mark the plate as source plate.
(§7) Step 2.4 Prepare an intermediate plate
(§8) Transfer 10 μl of each compound from the source plate to a new 96-well plate as the intermediate plate.
(§9) Add 90 μl of 1× kinase buffer to each well of the intermediate plate. Mix the compounds in the intermediate plate for 10 min on a shaker.
(§10) Transfer 5 μl of each well from the 96-well intermediate plate to a 384-well plate in duplicate. For example, A1 of the 96-well plate is transferred to A1 and A2 of the 384-well plate. A2 of the 96-well plate is transferred to A3 and A4 of the 384-well plate, and so on.
(§11) 4.1 Prepare a 2.5× kinase solution
(§12) Add kinase in 1× kinase base buffer, thus obtain the 2.5× kinase solution.
(§13) 4.2 Prepare a 2.5× peptide solution
(§14) 4.3 In each well of the assay plate obtained in step 3, there was 5 μL of the compound in 10% DMSO.
(§15) 4.4 Transfer the 2.5× enzyme solution to the assay plate.
(§16) 4.5 Incubate at room temperature for 10 min.
(§17) 4.6 Transfer the 2.5× peptide solution to the assay plate.
(§18) 4.7 Kinase reaction and stop
(§19) Incubate at 28° C. for 20 min.
(§20) Add 25 μl of stop buffer to stop reaction.
(§21) Conversion rate of the kinase was read via the Caliper.
(§22) 6.1 Copy conversion data from Caliper program.
(§23) 6.2 Convert conversion values to inhibition values with the following formula: Percent inhibition=(max−conversion)/(max−min)*100
(§24) where “max” stands for DMSO control; and “min” stands for low control.
(§25) 6.3 Fit the data in XLfit excel add-in version 4.3.1 and obtain IC50 values according to the following formula: Y=Bottom+(Top−Bottom)/[…].

[2] = test system: Karpas299 cells; test: Suppression of Karpas299 cell proliferation (CellTiter-Glo); format: cell-based; details: 3 days incubation, read-out: Inhibition activity on Karpas299 cells IC50
Procedure: (§26) As the amount of ATP can indicate the number of living cells directly, the living cells in culture are able to be quantified by determining the ATP level. In our experiment, we use a living-cell testing kit to quantify the living cells, which utilizes UltraGlow luciferase to generate a stable glow signal in the presence of ATP which is produced by metabolism of living cells, such as respiration. Specifically, a reagent CellTiter-Glo™ was added into cell culture media, and then the luminescent intensity was determined to measure proliferation of cells, as the luminescent intensity is in direct proportion to the ATP level which correlates positively to the number of living cells. The test plate was tested with the Envision (PE).
Cell media: RPMI-1640 medium, fetal calf serum (FCS), antibiotics (Penicillin-Streptomycin)
Assay reagent: Cell Viability Assay Kit CellTiter-Glo
(§27) Others: a 96-well plate, a 384-well plate, DMSO
(§28) Step 3.1 Culturing test cells
Karpas 299 cells were plated into a black 384-well plate, with 2500 cells in 45 μl cell suspension per well. The plate was placed in a carbon dioxide incubator overnight.
(§29) Step 3.2 Preparation of the compounds to be tested
Each compound to be tested was dissolved in DMSO at 10 mM as the stock solution, which was left in a nitrogen-gas tank for storage.
After dilution of 10 μL stock solution (10 mM) into 2.5 mM as a starting working solution, 10 concentrations of the working solutions from 5 μM to 0.25 nM were obtained in duplicate by further dilution in 3-fold series with ECHO.
Step 3.3 Mixing the compound with the test cells
To each well of a new 96-well plate were added 49 μl medium and 1 μl of the compounds to be tested at individual working concentrations (10 concentrations in total). After oscillation,
5 μl of mixture in each well of the 96-well plate was transferred into corresponding wells in the 384-well plate in the step 3.1. The 384-well plate was incubated in the carbon dioxide incubator for 3 days.
To each well of the 384-well plate was added […] reagent Promega CellTiter-Glo. and incubated at room temperature for 10 minutes to stabilize the luminescence signal. The results were read with the PerkinElmer Envision Multi-mode Plate Reader.

[3] = target: ALK L1196M (Homo sapiens (Human), UniProt Q9UM73, L1196M); test: Inhibition of ALK L1196M kinase activity (Caliper mobility shift); format: biochemical
Sequence of ALK L1196M (Q9UM73 19-1620 L1196M): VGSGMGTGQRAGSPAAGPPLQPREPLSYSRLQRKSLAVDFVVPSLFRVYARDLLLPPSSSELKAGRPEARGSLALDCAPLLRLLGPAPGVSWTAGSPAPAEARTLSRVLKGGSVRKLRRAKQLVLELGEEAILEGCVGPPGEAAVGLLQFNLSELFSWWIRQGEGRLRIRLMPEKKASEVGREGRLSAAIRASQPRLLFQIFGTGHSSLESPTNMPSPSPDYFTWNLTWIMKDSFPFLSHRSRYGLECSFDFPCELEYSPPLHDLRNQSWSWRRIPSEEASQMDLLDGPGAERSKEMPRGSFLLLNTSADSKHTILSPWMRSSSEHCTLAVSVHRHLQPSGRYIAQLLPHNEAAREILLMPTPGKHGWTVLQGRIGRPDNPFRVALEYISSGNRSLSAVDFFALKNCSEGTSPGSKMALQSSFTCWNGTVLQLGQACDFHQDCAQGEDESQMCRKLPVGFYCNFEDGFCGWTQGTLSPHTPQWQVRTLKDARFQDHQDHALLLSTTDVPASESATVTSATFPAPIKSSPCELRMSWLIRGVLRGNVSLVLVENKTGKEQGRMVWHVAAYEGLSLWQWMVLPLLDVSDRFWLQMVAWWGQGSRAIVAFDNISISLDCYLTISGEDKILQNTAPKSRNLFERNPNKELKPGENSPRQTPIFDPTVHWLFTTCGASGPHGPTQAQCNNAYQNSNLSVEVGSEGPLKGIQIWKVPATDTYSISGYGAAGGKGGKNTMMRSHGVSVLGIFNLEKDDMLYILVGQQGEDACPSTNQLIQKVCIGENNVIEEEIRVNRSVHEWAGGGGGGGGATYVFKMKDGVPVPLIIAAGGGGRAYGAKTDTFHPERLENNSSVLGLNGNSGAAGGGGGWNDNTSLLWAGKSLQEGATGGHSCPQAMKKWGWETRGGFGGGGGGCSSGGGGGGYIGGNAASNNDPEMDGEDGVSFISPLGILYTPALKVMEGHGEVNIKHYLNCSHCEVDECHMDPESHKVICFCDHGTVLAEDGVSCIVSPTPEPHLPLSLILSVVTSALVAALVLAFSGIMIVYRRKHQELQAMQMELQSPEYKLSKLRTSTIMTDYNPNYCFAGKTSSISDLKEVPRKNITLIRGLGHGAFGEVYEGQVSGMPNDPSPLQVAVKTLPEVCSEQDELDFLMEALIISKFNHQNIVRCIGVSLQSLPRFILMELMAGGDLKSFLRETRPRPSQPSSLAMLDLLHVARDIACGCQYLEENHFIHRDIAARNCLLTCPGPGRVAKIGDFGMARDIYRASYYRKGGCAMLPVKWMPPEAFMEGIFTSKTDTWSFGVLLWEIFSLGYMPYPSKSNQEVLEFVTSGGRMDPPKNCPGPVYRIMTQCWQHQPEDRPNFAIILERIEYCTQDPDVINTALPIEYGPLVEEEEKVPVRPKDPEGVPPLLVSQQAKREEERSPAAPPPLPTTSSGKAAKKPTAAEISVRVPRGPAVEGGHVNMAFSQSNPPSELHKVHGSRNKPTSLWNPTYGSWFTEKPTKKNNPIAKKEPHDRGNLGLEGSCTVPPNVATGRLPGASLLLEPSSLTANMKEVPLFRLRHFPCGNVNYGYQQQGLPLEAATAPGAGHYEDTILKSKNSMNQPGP
Procedure: as §1, §2, §3, §4, §5, §6, §7, §8, §9, §10, §11, §12, §13, §14, §15, §16, §17, §18, §19, §20, §21, §22, §23, §24, §25

[4] = test system: Ba/F3 EML4-ALK cells; test: Suppression of Ba/F3 EML4-ALK cell proliferation (CellTiter-Glo); format: cell-based; details: 3 days incubation
Source text: Cell media: RPMI-1640 medium, fetal calf serum (FCS), antibiotics (Penicillin-Streptomycin), IL-3, puromycin
Cell line: Ba/F3 EML4-ALK
Assay reagent: Cell Viability Assay Kit Celliter-Glo
as §27
as §26, with “in medium” for “in culture”, “a cell viability assay” for “a living-cell testing”, “was assayed by” for “was tested with”
as §28
Ba/F3 EML4-ALK cells were planted into a 384-well plate, with almost 300 cells per well. The plate was placed in a carbon dioxide incubator overnight.
as §29
10 concentrations of the working solutions were obtained in duplicate by dilution in 3-fold series with BRAVO.
Step 3.3 Mixing the compound to be tested with the test cells
The compounds to be tested at individual working concentrations were transferred into corresponding wells in the 384-well plate in the step 3.1, with 5 μM as the initial working concentration, and then the 384-well plate was incubated in the carbon dioxide incubator for 3 days.
To each well of the 384-well plate was added the reagent Promega CellTiter-Glo, and incubated at room temperature for 10 minutes to stabilize the luminescence signal. The results were read by the PerkinElmer Envision Multi-mode Plate Reader.

Sequence of ALK (Q9UM73 19-1620): as the sequence (Q9UM73 19-1620 L1196M) above, with M1178L counted along it

Molecule | IC50 [1] | IC50 [2] | IC50 [3] | IC50 [4] | IC50 ([2]; Homo sapiens, KARPAS-299, 72 h) | IC50 ([4]; Ba/F3 EML4-ALK, 72 h)
5-chloro-N^2-(2-isopropoxy-5-methyl-4-(1,2,3,6-tetrahydropiperidin-4-yl) phenyl)-N^4-(2-isopropylsulfonyl) pyridin-3-yl) pyrimidine-2,4-diamine [Compound I-90] | 1 to 10 nM | < 50 nM | 1 to 10 nM | < 20 nM | – | –
COc1cc(N2CCOCC2)ccc1Nc1ncc(Cl)c(Nc2ccsc2S(=O)(=O)C(C)C)n1 [Compound I-1] | – | – | – | – | < 50 nM | < 20 nM
COc1cc(N2CCN(C)CC2)ccc1Nc1ncc(Cl)c(Nc2ccsc2S(=O)(=O)C(C)C)n1 [Compound I-2] | – | – | – | – | < 50 nM | < 20 nM
COc1cc(N2CCC(N(C)C)CC2)ccc1Nc1ncc(Cl)c(Nc2ccsc2S(=O)(=O)C(C)C)n1 [Compound I-3] | – | – | – | – | < 50 nM | < 20 nM
COc1cc(N2CCN(C)CC2)ccc1Nc1ncc(Cl)c(Nc2cccnc2S(=O)(=O)C(C)C)n1 [Compound I-5] | 1 to 10 nM | – | 1 to 10 nM | – | < 50 nM | < 20 nM
COc1cc(N2CCC(N(C)C)CC2)ccc1Nc1ncc(Cl)c(Nc2cccnc2S(=O)(=O)C(C)C)n1 [Compound I-6] | 1 to 10 nM | – | 1 to 10 nM | – | < 50 nM | < 20 nM
COc1cc(N2CCC(N3CCOCC3)CC2)ccc1Nc1ncc(Cl)c(Nc2cccnc2S(=O)(=O)C(C)C)n1 [Compound I-7] | 1 to 10 nM | – | 1 to 10 nM | – | < 50 nM | < 20 nM
COc1cc(N2CCC(N3CCOCC3)CC2)ccc1Nc1ncc(Cl)c(Nc2ccsc2S(=O)(=O)C(C)C)n1 [Compound I-8] | – | – | – | – | < 50 nM | < 20 nM
COc1cc(N2CCC(O)CC2)ccc1Nc1ncc(Cl)c(Nc2cccnc2S(=O)(=O)C(C)C)n1 [Compound I-9] | 1 to 10 nM | – | 1 to 10 nM | – | < 50 nM | 20 to 100 nM
COc1cc(N2CCC(N3CCN(C)CC3)CC2)ccc1Nc1ncc(Cl)c(Nc2cccnc2S(=O)(=O)C(C)C)n1 [Compound I-10] | 1 to 10 nM | – | 1 to 10 nM | – | < 50 nM | < 20 nM
COc1cc(N2CCC(N3CCN(C)CC3)CC2)ccc1Nc1ncc(Cl)c(Nc2ccsc2S(=O)(=O)C(C)C)n1 [Compound I-11] | 1 to 10 nM | – | 1 to 10 nM | – | < 50 nM | < 20 nM
COc1cc(N2CCN(C)CC2)ccc1Nc1ncc(Cl)c(Nc2ccccc2S(=O)(=O)C(C)C)n1 [Compound I-13] | – | – | – | – | < 50 nM | < 20 nM
COc1cc(N2CCC(N(C)C)CC2)ccc1Nc1ncc(Cl)c(Nc2ccccc2S(=O)(=O)C(C)C)n1 [Compound I-14] | – | – | – | – | < 50 nM | < 20 nM
COc1cc(N2CCC(N3CCC(N(C)C)CC3)CC2)ccc1Nc1ncc(Cl)c(Nc2ccccc2S(=O)(=O)C(C)C)n1 [Compound I-15] | – | – | – | – | 50 to 100 nM | < 20 nM
COc1cc(N2CCC(O)CC2)ccc1Nc1ncc(Cl)c(Nc2ccsc2S(=O)(=O)C(C)C)n1 [Compound I-16] | – | – | – | – | < 50 nM | < 20 nM
COc1cc(C2=CCNCC2)c(C)cc1Nc1ncc(Cl)c(Nc2cccnc2S(=O)(=O)C(C)C)n1 [Compound I-89] | 1 to 10 nM | – | – | – | 50 to 100 nM | < 20 nM
CC(C)S(=O)(=O)c1ccccc1Nc1nc(Nc2ccc(N3CCC(N(C)C)CC3)cc2OC(F)F)ncc1Cl [Compound I-95] | – | – | – | – | < 50 nM | 20 to 100 nM
COc1cc(CN2CCC(N(C)C)CC2)ccc1Nc1ncc(OC(F)F)c(Nc2ccccc2S(=O)(=O)C(C)C)n1 [Compound I-103] | 1 to 10 nM | – | – | – | 50 to 100 nM | < 20 nM
COc1cc(CN2CCC(N(C)C)CC2)ccc1Nc1ncc(Cl)c(Nc2cccnc2S(=O)(=O)C(C)C)n1 [Compound I-107] | – | – | 1 to 10 nM | – | 50 to 100 nM | 20 to 100 nM
CC(C)S(=O)(=O)c1ccccc1Nc1nc(Nc2ccc(N3CCC(N(C)C)CC3)cc2OC(F)F)ncc1OC(F)F [Compound I-114] | – | – | – | – | < 50 nM | < 20 nM
